Reference: patent US12486254B2, “Uracil derivatives for stimulating read-through of premature termination codons” (Southern Research Institute, priority 2022, dated 2025)
pEC50: −log10 of the molar value.

Experiments:
[1] = tested on: G542X#10-HBE5x5; assay: Read-through of a premature termination codon, G542X#10-HBE5x5 (Table 3); assay type: cell-based; conditions: with G418
Method: (§1) The compounds shown in Table 1 were evaluated for their ability to stimulate read-through of a premature termination codon, and their respective activities are shown in Tables 2 and 3 below.

[2] = tested on: W134X-CF#14 FRT; assay: Read-through of a premature termination codon, W134X-CF#14 FRT data, with G418; assay type: cell-based; conditions: in presence of G418
Method: as §1

SMILES	pEC50 [1]	pEC50 [2]
CCn1c(=O)c(C(=O)CNCC2CCCCO2)c(N)n(Cc2ccccc2)c1=O (centres unmarked) [1.8]	≤ 4.00	3.78
CCn1c(=O)c(C(=O)CN2CCCC2C(=O)OC)c(N)n(Cc2ccccc2)c1=O (centres unmarked) [1.12]	≤ 4.00	4.34
CCn1c(=O)c(C(=O)CNCc2ccccc2)c(N)n(Cc2ccccc2)c1=O [1.14]	≤ 4.00	4.91
CCOC(=O)C1CCCCN1CC(=O)c1c(N)n(Cc2ccccc2)c(=O)n(CC)c1=O (centres unmarked) [1.22]	≤ 4.00	4.08
CCn1c(=O)c(C(=O)CN2CCC[C@@H]2C(=O)OC)c(N)n(Cc2ccccc2)c1=O [1.24]	≤ 4.00	4.64
CCN(CC(N)=O)CC(=O)c1c(N)n(Cc2ccccc2)c(=O)n(CC)c1=O [1.36]	≤ 4.00	4.03
CCn1c(=O)c(C(=O)CN2CCOCC2C(N)=O)c(N)n(Cc2ccccc2)c1=O (centres unmarked) [1.53]	≤ 4.00	≤ 4.00
CCn1c(=O)c(C(=O)CN(Cc2ncco2)C(C)C)c(N)n(Cc2ccccc2)c1=O [1.56]	≤ 4.00	≤ 4.00
CCn1c(=O)c(C(=O)CN(Cc2ncc[nH]2)C(C)C)c(N)n(Cc2ccccc2)c1=O [1.57]	≤ 4.00	4.81
CCn1c(=O)c(C(=O)CN2CCCCC2c2nc(C)no2)c(N)n(Cc2ccccc2)c1=O (centres unmarked) [1.86]	≤ 4.00	4.25
CCn1c(=O)c(C(=O)CN2CCCCC2C(=O)N2CCN(C)CC2)c(N)n(Cc2ccccc2)c1=O (centres unmarked) [1.96]	≤ 4.00	4.23
CCn1c(=O)c(C(=O)CN2CCCCC2C(N)=O)c(N)n(Cc2cccs2)c1=O (centres unmarked) [1.112]	≤ 4.00	5.46
CCn1c(=O)c(C(=O)CN2CCCCC2C(=O)N(C)C)c(N)n(Cc2cccs2)c1=O (centres unmarked) [1.113]	≤ 4.00	5.24
CCn1c(=O)c(C(=O)CN2CCC(C)CC2C(N)=O)c(N)n(Cc2ccc(F)cc2)c1=O (centres unmarked) [1.131]	≤ 4.00	5.33
CCn1c(=O)c(C(=O)CNC(C)C)c(N)n(Cc2ccc(F)cc2)c1=O [1.138, 6-amino-3-ethyl-1-[(4-fluorophenyl)methyl]-5-[2-(isopropylamino)acetyl]pyrimidine-2,4-dione]	≤ 4.00	4.10
NC(=O)C1CCCCN1CC(=O)c1c(N)n(Cc2ccc(F)cc2)c(=O)n(CC2CCC2)c1=O (centres unmarked) [1.140]	≤ 4.00	5.20
CCn1c(=O)c(C(=O)CN2CCCC[C@@H]2C(=O)NCC2CC2)c(N)n(Cc2ccccc2)c1=O [1.158]	≤ 4.00	5.59
CCn1c(=O)c(C(=O)CN2CCCCC2=O)c(N)n(Cc2ccc(F)cc2)c1=O [1.165]	≤ 4.00	≤ 4.00
CCn1c(=O)c(C(=O)CN2CCCCC2C(C)C)c(N)n(Cc2ccc(F)cc2)c1=O (centres unmarked) [1.175]	≤ 4.00	5.07
CCn1c(=O)c(C(=O)CN(CC(=O)N2CCCCC2)C(C)C)c(N)n(Cc2ccc(F)cc2)c1=O [1.176]	≤ 4.00	5.79
CCn1c(=O)c(C(=O)CN2CCCCC2CN(C)C)c(N)n(Cc2ccc(F)cc2)c1=O (centres unmarked) [1.177]	≤ 4.00	4.19
CCn1c(=O)c(C(=O)CNc2cc(OC)c(OC)c(OC)c2)c(N)n(Cc2ccc(F)cc2)c1=O [1.183]	≤ 4.00	4.59
CCn1c(=O)c(C(=O)CN2CCCC[C@@H]2c2nccn2C)c(N)n(Cc2ccc(F)cc2)c1=O [1.190]	≤ 4.00	5.49
CCn1c(=O)c(C(=O)CN2CCCC2)c(N)n(Cc2ccc(F)cc2)c1=O [1.194]	≤ 4.00	4.53
CCn1c(=O)c(C(=O)CN2CCCC[C@@H]2c2ncc[nH]2)c(N)n(Cc2ccc(F)cc2)c1=O [1.196]	≤ 4.00	5.81
CCn1c(=O)c(C(=O)CN(CC(=O)N2CCC(F)(F)CC2)C(C)C)c(N)n(Cc2ccc(F)cc2)c1=O [1.203]	≤ 4.00	5.39

Now from value to compound:

pEC50 [1]	pEC50 [2]	SMILES
≤ 4.00	4.64	CCn1c(=O)c(C(=O)CN2CCC(c3ccccc3)C2)c(N)n(Cc2ccccc2)c1=O (centres unmarked) [1.3]
≤ 4.00	4.00	CCn1c(=O)c(C(=O)CN2CCN(c3ncccn3)CC2)c(N)n(Cc2ccccc2)c1=O [1.4]
≤ 4.00	4.49	CCn1c(=O)c(C(=O)CN2CCc3cc(F)ccc3C2)c(N)n(Cc2ccccc2)c1=O [1.7]
4.21	4.93	CCn1c(=O)c(C(=O)CNc2nc3ccccc3[nH]2)c(N)n(Cc2ccccc2)c1=O [1.29]
4.04	4.17	CCn1c(=O)c(C(=O)CN(Cc2ccccc2)C2CCCCC2)c(N)n(Cc2ccccc2)c1=O [1.30]
4.30	5.50	NC(=O)[C@H]1CCCCN1CC(=O)c1c(N)n(Cc2ccc(F)cc2)c(=O)n(Cc2ccc(F)cc2)c1=O [1.47, (2R)-1-[2-[4-amino-1,3-bis[(4-fluorophenyl)methyl]-2,6-dioxo-pyrimidin-5-yl]-2-oxo-ethyl]piperidine-2-carboxamide]
5.15	5.34	NC(=O)C1CCCCN1CC(=O)c1c(N)n(Cc2ccc(Cl)cc2)c(=O)n(Cc2ccc(Cl)cc2)c1=O (centres unmarked) [1.107]
4.38	5.49	CCn1c(=O)c(C(=O)CN(CC(N)=O)C(C)C)c(N)n(Cc2ccc(F)cc2F)c1=O [1.149]
4.60	5.50	Nc1c(C(=O)CN2CCCC[C@@H]2C(=O)N2CCCCC2)c(=O)n(Cc2ccc(F)cc2)c(=O)n1Cc1ccc(F)cc1 [1.152]
4.74	4.89	CCn1c(=O)c(C(=O)CNc2ccc(C(N)=O)cc2)c(N)n(Cc2ccc(F)cc2)c1=O [1.206]
4.58	4.45	CCn1c(=O)c(C(=O)CNc2ccccc2C(N)=O)c(N)n(Cc2ccc(F)cc2)c1=O [1.207]
